Results: patent US12497460B2, “Anti-MSR1 antibodies and methods of use thereof” (REGENERON PHARMACEUTICALS, INC., priority 2018, dated 2025)
Counter-ions that a name gives are not always drawn. Like-named read-outs stand apart in the source and are kept apart here. Marks after values point to notes of the source that are not given here.

How the values were obtained:
[1] = test system: Msr1^hu/hu ApoE^−/− mice, peritoneal cells; test: Ex vivo LPS-induced cytokine production by peritoneal cells after in vivo dosing; design: species or system mouse
Method: (§1) To examine the anti-inflammatory effect of the anti-MSR1 antibody-steroid conjugates, an ex-vivo and in vivo LPS-induced inflammatory immune response model was performed.
(§2) Generation of a mouse inflammatory immune response model. Mice homozygously expressing human MSR1 extracellular domain in place of the mouse MSR1 extracellular domain and with a homozygous deletion of the ApoE gene were utilized (resulting mice referred to as Msr1^hu/hu ApoE^−/− mice).
(§3) Assay protocol for ex vivo LPS-induced responses. In ex vivo LPS challenge experiments, mice were intraperitoneally administered with 10 μL/g of anti-MSR1 antibody-steroid conjugates (H1H21234N-N297Q-LP13), isotype control steroid conjugate (Isotype control-LP13), unconjugated anti-MSR1 antibody (H1H21234N-N297Q) and isotype control antibodies at different time points (24, 48, and 72 hours) prior to harvesting the peritoneal cells from peritoneal cavity. […] All mice were sacrificed at 0 hour time point and peritoneal cells were obtained from the peritoneum by the peritoneal lavage technique. In brief, 5 mL of ice cold 1×PBS (ThermoFisher Scientific, Cat #20012027) containing 2% BSA (Gibco, Cat #A9576) and 0.6 mM EDTA (ThermoFisher Scientific, Cat #15575020) were injected into the peritoneal cavity using 27 g needle. […] The resuspended cells were plated at 500,000 cells per well in 24-well tissues culture plates and incubated with or without 10 ng/mL of LPS for 18 hours.
Measurement of cytokines at 18 hours post-LPS ex vivo challenge. Supernatants were collected into 96-well round bottom tissue culture plates at 18 hours post-ex vivo LPS challenge and stored at […] until further analysis. Cytokine concentrations in the supernatants were measured using a Proinflammatory Panel 1 (mouse) multiplex immunoassay kit (MesoScale Diagnostics, Cat #K15048D) according to manufacturer's instructions. Electrochemiluminescence was read on a Meso Scale Diagnostics SECTOR® instrument. Data analysis was performed using GraphPad Prism™ software. Statistical significance within the groups was determined by one-way Anova with Turkey's multiple comparison post-test (*p<0.01; **p<0.001; ***p<0.0001).

Msr1^hu/hu ApoE^−/− mice = test: In vivo LPS-induced cytokine production in serum; design: species or system mouse; settings: 1.48 mg/kg, 2 hours before in vivo LPS
Method: as §1, §2
(§4) Assay protocol for in vivo LPS-induced responses. In in vivo LPS challenge experiments, mice were intraperitoneally administered with 10 μL/g of decreasing concentrations of anti-MSR1 antibody-steroid conjugates (H1H21234N-N297Q-LP13) and isotype control steroid conjugate (Isotype control-N297Q-LP13) at 24 hours prior to in vivo LPS challenge. PBS and free steroid P4 were intraperitoneally injected at 2 hours prior to in vivo LPS challenge. At 0 hour time point, three large drops of blood (volume ˜ 100 μL) were collected from the maxillary vein of each mouse into serum gel separator tubes. The tubes were centrifuged at 2200-2500 rpm for 15 minutes, and the serum was collected into 96-well plates for subsequent measurement of cytokines. At 18 hours post in vivo LPS challenge, the peritoneal cells were obtained from periotenal cavity as aforementioned for subsequent flow cytometry analysis.

[2] = test system: LPS-induced IL-1β release in differentiated THP-1 cells; test: LPS-mediated IL-1β release assay; format: cell-based, human; settings: for IC50: Homo sapiens
Method: To test the anti-inflammatory properties of anti-MSR1 antibody-steroid conjugates in vitro, a lipopolysaccharide (LPS)-mediated IL-1β release assay was performed. For the assay, THP-1 cells were seeded onto 96 well plates at 40,000 cells/well in media containing RPMI supplemented with 10% FBS and pencillin/streptomycinin and differentiated with 200 nM Phorbol Myristate Acetate (PMA) for 3 days. After the 3-day differentiation period, three-fold serial dilutions of antibody drug conjugates, unconjugated antibodies, or free payloads in fresh media were added to the cells at final concentration ranging from 100 nM to 0.01 nM. Media alone served as a blank control. Subsequently at 24, 48, or 72 hours later, cells were treated with 100 ng/ml LPS (InVivoGen, Cat #tlrl-eklps) for 5 hours. The cell media was then collected, and IL-1β levels were measured using a V-PLEX Proinflammatory Panel 1 human kit (Meso Scale Diagnostics, Cat #15049D-2) as per manufacturer's instructions. Subsequently, the plate was read on a Meso Scale Diagnostics instrument.
IC50 values were determined from a four-parameter logistic equation over a 10-point response curve (GraphPad Prism). All IC50 values are expressed in M (molar) concentration. The IC50 values and IL-1β amount at the maximum concentration of antibody-steroid conjugates or controls are shown in Table 22 each of the time point tested.

[3] = test system: Msr1^hu/hu ApoE^−/− mice, peritoneal macrophages; test: LPS-mediated expression of CD80 on peritoneal macrophages (flow cytometry); format: in vivo, mouse; settings: administered 2 hours before
Method: as §3, §4
Analysis of expression of activation markers on peritoneal macrophages after LPS ex vivo challenge. Upon collection of supernatants for cytokine analysis, the plates were washed twice with 1×PBS w/o Ca^++/Mg2^++ (ThermoFisher Scientific, Cat #14190144), and the adherent peritoneal cells were harvested by addition of 250-300 μL of cold Macrophage Detachment Solution DXF (PromoCell, Cat #C41330) for 40 minutes. The detached cells were collected into 50-mL tubes and centrifuged at 350×g for 15 minutes. After two washes with 1×PBS supplemented with 2 mM EDTA, the cells were resuspended in Cell Staining Buffer (Biolegend, #420201) and plated at 1×10^6 cells per well in a 96-well V bottom plate. […] Data were analyzed using FlowJo (Tree Star).

LXR (THP1/LXR-Luc cells) = test: LXR-luciferase reporter bioassay (Example 31); format: cell-based, human; settings: signal to noise, ratio of RLU of standard one over standard eight; 48 hours
Description: Generation of assay cell line. To test the efficacy of anti-MSR1 antibody-LXR conjugates in vitro, a cell-based LXR responsive luciferase reporter assay was developed. To generate the assay cell line, a LXR regulated luciferase reporter gene [Cignal Lenti LXR Reporter (luc) kit (Qiagen, Cat #CLS-001 L)] was transduced into THP1 cells, and cells were selected for two weeks in puromycin. The lentivirus expresses the firefly luciferase gene under the control of a minimal CMV promoter and tandem repeats of the LXR transcriptional response element. The resulting cell line is referred to as THP1/LXR-Luc cells.
Assay protocol. THP1/LXR-Luc cells were seeded onto 96 well plates at 40,000 cells/well in media containing RPMI supplemented with 10% FBS and pencillin/streptomycin and subsequently differentiated with 200 nM Phorbol Myristate Acetate (PMA) for 3 days. After the 3-day differentiation period, three-fold serial dilutions of antibody drug conjugates, unconjugated antibodies, or free payloads in fresh media were added to the cells at final concentration ranging from 100 nM to 0.01 nM. Media alone served as a blank control. Forty-eight hours later, luciferase activity was determined after the addition of One-Glo™ reagent (Promega, Cat #E6130) to each well. Relative light units (RLUs) were measured on a Victor luminometer (PerkinElmer) and EC50 values were determined using a four-parameter logistic equation over a 10-point dose response curve (GraphPad Prism). The signal to noise (S/N) was determined by calculating the ratio of RLU of standard one over RLU of standard eight for each of the unconjugated anti-MSR1 antibodies or free payloads. “LP #” represents a linker-payload for which the corresponding structures are provided elsewhere herein, and “P #” represents a payload for which the corresponding structures are provided elsewhere herein.

[4] = administered 2 hours before peritoneal cell isolation, ex vivo LPS

CCCC1O[C@@H]2C[C@H]3[C@@H]4C[C@H](F)C5=CC(=O)C=C[C@]5(C)[C@@]4(F)[C@@H](O)C[C@]3(C)[C@]2(C(=O)CN)O1 (mixture of isomers) [P4, (1S,2S,4R,6R,8S,9S,11S,12R,13S,19S)-8-(2-Aminoacetyl)-12,19-difluoro-11-hydroxy-9,13-dimethyl-6-propyl-5,7-dioxapentacyclo[10.8.0.0^2,9.0^4,8.0^13,18]icosa-14,17-dien-16-one]
Cytokine IL-6 [1, 4]: 12.98 ± 5.8**** ng/mL | Cytokine KC-GRO [1, 4]: 2.6 ± 1.3** ng/mL | Cytokine TNF-α [1, 4]: 0.43 ± 0.06** ng/mL | effect on ex vivo LPS-induced cytokine production (IL-6, KC-GRO, TNF-α) by peritoneal cells ([1]; i.p. dosing 24, 48, 72 hours (conjugates, antibodies) or 2 hours (free steroids) before cell harvest, 10 ng/mL LPS 18 hours): Comparable inhibition of LPS-induced immune responses | Cytokine IL-6 in serum (Msr1^hu/hu ApoE^−/− mice): 3.51 ± 0.7 ng/mL | Cytokine KC-GRO in serum (Msr1^hu/hu ApoE^−/− mice): 4.1 ± 1.5 ng/mL | Cytokine TNF-α in serum (Msr1^hu/hu ApoE^−/− mice): 0.09 ± 0.02 ng/mL | IL1beta released at max concentration tested ([2]; 24 hour treatment before LPS): 43.39 pg/mL | IL1beta released at max concentration tested ([2]; 48 hour treatment before LPS): 9.3 pg/mL | IL1beta released at max concentration tested ([2]; 72 hour treatment before LPS): 12.95 pg/mL | IC50 ([2]; THP-1, 24-hour time point, 100 ng/ml LPS for 5 hours, read-out: IC50, inhibition of LPS-induced IL-1β secretion): 0.849 nM | IC50 ([2]; THP-1, 48-hour time point, 100 ng/ml LPS for 5 hours, read-out: IC50, inhibition of LPS-induced IL-1β secretion): 1.02 nM | IC50 ([2]; THP-1, 72-hour time point, 100 ng/ml LPS for 5 hours, read-out: IC50, inhibition of LPS-induced IL-1β secretion): 1.2 nM | IC50 ([2]; THP-1, 24 hour treatment before LPS, read-out: EC50 (the source's name)): 0.849 nM | IC50 ([2]; THP-1, 48 hour treatment before LPS, read-out: EC50 (the source's name)): 1.02 nM | IC50 ([2]; THP-1, 72 hour treatment before LPS, read-out: EC50 (the source's name)): 1.2 nM | LPS-mediated expression of CD80, pMΦ Cells ([3]; hMSR1+F4/80+CD11b+ peritoneal macrophages): 54.7 ± 3.8 % relative to PBS/LPS-treatment | LPS-mediated expression of CD80, non-pMΦ Cells ([3]; hMSR1−F4/80−CD11b− cells): 93.02 ± 4.4 % relative to PBS/LPS-treatment

C[C@]1(C(=O)NC(=O)[C@@]2(C)CCC[C@]3(C)c4cc(NC(=O)[C@@H](N)CO)ccc4CC[C@@H]23)CCC[C@]2(C)c3cc(O)ccc3CC[C@@H]12 [P5, (1S,4aS,10aR)-6-((S)-2-Amino-3-hydroxypropanamido)-N-((1S,4aS,10aR)-6-hydroxy-1,4a-dimethyl-1,2,3,4,4a,9,10,10a-octahydrophenanthrene-1-carbonyl)-1,4a-dimethyl-1,2,3,4,4a,9,10,10a-octahydrophenanthrene-1-carboxamide]
S/N (LXR (THP1/LXR-Luc cells)): 5.7

C[C@]1(C(=O)NC(=O)[C@@]2(C)CCC[C@]3(C)c4cc(NC(=O)[C@@H](N)CCC(=O)O)ccc4CC[C@@H]23)CCC[C@]2(C)c3cc(O)ccc3CC[C@@H]12 [P6, (4S)-4-Amino-4-{[(4bS,8S,8aR)-8-{[(1S,4aS,10aR)-6-hydroxy-1,4a-dimethyl-1,2,3,4,4a,9,10,10a-octahydrophenanthrene-1-carbonyl]carbamoyl}-4b,8-dimethyl-4b,5,6,7,8,8a,9,10-octahydrophenanthren-3-yl]carbamoyl}butanoic acid; trifluoroacetic acid salt]
S/N (LXR (THP1/LXR-Luc cells)): 8.3

C[C@]1(C(=O)NC(=O)[C@@]2(C)CCC[C@]3(C)c4cc(NC(=O)[C@@H](N)CCCCN)ccc4CC[C@@H]23)CCC[C@]2(C)c3cc(O)ccc3CC[C@@H]12 [P7, (1S,4aS,10aR)-N-[(1S,4aS,10aR)-6-Hydroxy-1,4a-dimethyl-1,2,3,4,4a,9,10,10a-octahydrophenanthrene-1-carbonyl]-6-[(2S)-2,6-diaminohexanamido]-1,4a-dimethyl-1,2,3,4,4a,9,10,10a-octahydrophenanthrene-1-carboxamide; trifluoroacetic acid salt]
S/N (LXR (THP1/LXR-Luc cells)): 8.9
